Assay: in vitro
Conditions: human, hela cells, % viability

| Structure (SMILES) | viability at 28.5 h, 10 µM [%] |
| --- | --- |
| Cc1nc(C2CCCCN2C(=O)C2CCCCC2)ncc1C(=O)NCc1ccc(F)cc1 (centres unmarked) [CBK285554] | 86.5 |
| Cc1cc(C)n(CC(=O)Nc2cccc(CCc3ccncc3)c2)c(=O)n1 [CBK285555] | 105 |
| Cc1nc2ncnn2c(C)c1CCC(=O)Nc1cccc(CCc2ccncc2)c1 [CBK285557] | 99.8 |
| COc1nn(CC(=O)Nc2cccc(CCc3ccncc3)c2)c(=O)c2ccccc12 [CBK285560] | 94.5 |
| CCn1nc2c(c1C(=O)Nc1cccc(CCc3ccncc3)c1)CCCC2 [CBK285561] | 87.5 |
| COc1ccc(F)cc1-c1cccc(CC2(C(=O)NCCc3ccccc3)CCOCC2)c1 [CBK285562] | 84.5 |
| Cc1oc(C(=O)N2CCc3sccc3C2c2ccccc2)cc1CN1CCOCC1 (centres unmarked) [CBK285566] | 105 |
| Cc1cc(C)nc(N2CCC(c3cc(CCOc4cccc(C(F)(F)F)c4)[nH]n3)C2)n1 (centres unmarked) [CBK285568] | 78.7 |
| O=C(NCc1cccs1)C1(Cc2cccc(-c3ccc(F)c(F)c3)c2)CCOCC1 [CBK285569] | 93.2 |
| O=C(NCCc1ccc(Cl)cc1)C1(Cc2ccc(-c3ccncc3)cc2)CCOCC1 [CBK285570] | 89 |
| CN1C[C@H](C(N)=O)[C@@H](c2ccc(CN(C)C(=O)c3cccc(Oc4ccccc4)c3)cc2)C1 [CBK285572] | 114 |
| COc1ccc(C(NC(=O)c2cc(C)oc2CN2CCCC2)c2ccccc2)cc1 (centres unmarked) [CBK285573] | 118 |
| Cc1cc(C)nc(N2CCC(C3CC=CCN(CCc4ccccc4)C3=O)CC2)n1 (centres unmarked) [CBK285575] | 105 |
| O=C(c1cc2c(s1)CCCC2)N1CCCCC1c1nnc(-c2nccc3ccccc23)o1 (centres unmarked) [CBK285577] | 61 |
| COc1ccc(C(NC(=O)c2ccc(Cn3nc(C)cc3C)o2)c2ccccc2)cc1 (centres unmarked) [CBK285578] | 87.8 |
| O=C(NC1Cc2ccccc2C1)c1cccc(-c2ccc(CC3CCCNC3=O)cc2)c1 (centres unmarked) [CBK285579] | 94.9 |
| COc1ccc([C@H]2CN(C(=O)c3ccccc3)[C@@H]3CCN(Cc4cccc(F)c4)C[C@H]23)cc1 [CBK285584] | 98.9 |
| COc1ccc(-c2ccc(OC)cc2C(=O)Nc2ccc(Cn3cncn3)cc2)cc1 [CBK285588] | 109 |
| O=C(NCC1CCCCC1)C1(Cc2ccc(-c3cccnc3)cc2)CCOCC1 [CBK285591] | 92.6 |
| CNC(=O)C1(Cc2ccccc2-c2ccccc2)CCN(C(=O)Cc2cccc(C)c2)CC1 [CBK285594] | 104 |
| CN(C(=O)c1c[nH]nc1-c1ccc(CNC(=O)c2cccc(Cl)c2)cc1)c1ccccc1 [CBK285597] | 79.9 |
| Cc1ccc(C(=O)NCc2ccc(-c3n[nH]cc3C(=O)N(C)Cc3ccccc3)cc2)cc1 [CBK285598] | 100 |
| O=C(NCC1CCCCC1)C1(Cc2cccc(-c3cccnc3)c2)CCOCC1 [CBK285607] | 97.5 |
| COc1cccc([C@H]2CN(C(=O)c3ccccc3)[C@@H]3CCN(Cc4ccccc4F)C[C@H]23)c1 [CBK285608] | 97.6 |
| COc1cccc([C@H]2CN(C(=O)c3ccccc3)[C@@H]3CCN(Cc4cccs4)C[C@H]23)c1 [CBK285609] | 102 |
| COc1cccc([C@H]2CN(C(=O)c3ccccc3)[C@@H]3CCN(Cc4ccsc4)C[C@H]23)c1 [CBK285611] | 104 |

| Structure (SMILES) | viability at 28.5 h, 10 µM [%] |
| --- | --- |
| O=C(c1ccccc1)N1C[C@@H](c2ccsc2)[C@@H]2CN(Cc3ccccc3F)CC[C@@H]21 [CBK285612] | 116 |
| O=C(c1ccccc1)N1C[C@@H](c2ccsc2)[C@@H]2CN(Cc3ccccc3Cl)CC[C@@H]21 [CBK285613] | 101 |
| COc1ccc(CN2CC[C@H]3[C@@H](C2)[C@H](c2ccsc2)CN3C(=O)c2ccccc2)cc1 [CBK285614] | 97.6 |
| COc1ccccc1CN1CC[C@H]2[C@@H](C1)[C@H](c1ccsc1)CN2C(=O)c1ccccc1 [CBK285617] | 96 |
| COc1cccc(C(NC(=O)c2cccc(Cn3ccnc3C)c2)c2ccccc2)c1 (centres unmarked) [CBK285620] | 111 |
| CC(=O)N1CCc2cc(NCc3nc4ccccc4n3C(C)c3ccccc3)ccc21 (centres unmarked) [CBK285621] | 81.7 |
| COCCNC(=O)c1cc(C2CN(CCc3ccccc3)CCO2)nc2ccccc12 (centres unmarked) [CBK285622] | 99.4 |
| O=C(c1ccccc1)N1C[C@H](c2ccsc2)[C@H]2CN(Cc3cccs3)CC[C@H]21 [CBK285623] | 95.8 |
| COc1cccc([C@H]2CN(C(=O)c3ccccc3)[C@@H]3CCN(Cc4ccccc4)C[C@H]23)c1 [CBK285624] | 88.2 |
| COc1cccc([C@H]2CN(C(=O)c3ccccc3)[C@@H]3CCN(Cc4cccc(F)c4)C[C@H]23)c1 [CBK285626] | 92.6 |
| Cc1cnccc1-c1c[nH]nc1-c1cccc(CNS(=O)(=O)c2ccc(F)c(F)c2)c1 [CBK285627] | 96 |
| COc1ccc2c(c1)CC(C(=O)N1CCc3sccc3C1c1cccs1)CO2 (centres unmarked) [CBK285628] | 110 |
| COc1cccc(CN2CCC(c3ncc(C(=O)Nc4ccc(F)cc4)c(C)n3)CC2)c1 [CBK285630] | 89.8 |
| COc1ccc(-c2ccccc2NC(=O)c2cc(-n3cccn3)ccc2Cl)cc1 [CBK285634] | 91.3 |
| O=C(c1ccc(F)cc1)N1C[C@@H](c2ccsc2)[C@@H]2CN(Cc3ccccc3)CC[C@@H]21 [CBK285635] | 94.7 |
| O=C(c1ccc(F)cc1)N1C[C@H](c2ccsc2)[C@H]2CN(Cc3cccs3)CC[C@H]21 [CBK285636] | 114 |
| Cc1ccc(CN2CC[C@H]3[C@@H](C2)[C@H](c2ccsc2)CN3C(=O)c2ccc(F)cc2)cc1 [CBK285637] | 98.1 |
| Cc1ccccc1CN1CC[C@H]2[C@@H](C1)[C@H](c1ccsc1)CN2C(=O)c1ccc(F)cc1 [CBK285638] | 102 |
| Cc1cccc(CN2CC[C@H]3[C@@H](C2)[C@H](c2ccsc2)CN3C(=O)c2ccc(F)cc2)c1 [CBK285639] | 94.9 |
| O=C(c1ccc(F)cc1)N1C[C@@H](c2ccsc2)[C@@H]2CN(Cc3cccc(F)c3)CC[C@@H]21 [CBK285640] | 91.2 |
| Cc1nc(C2CCN(C(=O)C3CCC3)CC2)nc2c1CCCN2CCc1ccccc1 [CBK285645] | 97.3 |
| COc1ccc(C2(C(=O)NCc3ccc(-c4ccc(C(N)=O)c(C)n4)cc3)CCCC2)cc1 [CBK285647] | 96 |
| O=C(Nc1cccc(CCc2nc3ccccc3[nH]2)c1)c1ccc(Cn2cncn2)cc1 [CBK285648] | 89.1 |
| COc1ccc(-c2ccc(OC)cc2C(=O)Nc2ccc3c(c2)N(C)C(=O)CO3)cc1 [CBK285650] | 92 |
| COc1ccccc1-c1ccc(NC(=O)c2ccc3c(c2)ncn3C)cc1 [CBK285652] | 103 |
| Cc1ccc(C2CCCN2C(=O)c2ccc(=O)n(CC(=O)N(C)c3ccccc3)c2)cc1C (centres unmarked) [CBK285653] | 107 |

| Structure (SMILES) | viability at 28.5 h, 10 µM [%] |
| --- | --- |
| O=C(c1ccccc1F)N1C[C@H](c2ccsc2)[C@H]2CN(Cc3ccccc3)CC[C@H]21 [CBK285655] | 96.5 |
| O=C(c1ccccc1F)N1C[C@H](c2ccsc2)[C@H]2CN(Cc3ccccc3F)CC[C@H]21 [CBK285656] | 97.4 |
| O=C(c1ccccc1F)N1C[C@H](c2ccsc2)[C@H]2CN(Cc3cccs3)CC[C@H]21 [CBK285657] | 94.8 |
| Cc1ccc(CN2CC[C@@H]3[C@H](C2)[C@@H](c2ccsc2)CN3C(=O)c2ccccc2F)cc1 [CBK285658] | 96.5 |
| Cc1cccc(CN2CC[C@@H]3[C@H](C2)[C@@H](c2ccsc2)CN3C(=O)c2ccccc2F)c1 [CBK285659] | 109 |
| Cc1cccn2cc(C(=O)N3CC(C(=O)N4CCN(c5ccccc5)CC4)C3)nc12 [CBK285663] | 101 |
| Cn1cnc2cc(C(=O)N3CC(C(=O)N4CCN(c5ccccc5)CC4)C3)ccc21 [CBK285664] | 82.5 |
| Cc1cc(NC(=O)CN2CC(C(=O)N3CCN(c4ccccc4)CC3)C2)no1 [CBK285665] | 112 |
| Cc1nc(C)c(C(=O)N2CC(C(=O)N3CCN(c4ccccc4)CC3)C2)s1 [CBK285666] | 93.4 |
| CCc1noc(C)c1C(=O)N1CC(C(=O)N2CCN(c3ccccc3)CC2)C1 [CBK285667] | 107 |
| Cc1nc(C2CCN(Cc3cccc(F)c3)CC2)ncc1C(=O)Nc1ccc(F)cc1 [CBK285668] | 107 |
| CCn1cc(CN2CCC(c3cc(Cc4cccc(OC)c4)cc(C)n3)CC2)c(C)n1 [CBK285671] | 89.2 |
| Cn1cc(-c2ccc(C3CCCCN3Cc3ccnc4ccccc34)cn2)cn1 (centres unmarked) [CBK285672] | 93.3 |
| CC(NC(=O)Cc1c[nH]c(=O)[nH]c1=O)c1cc2cc(Cl)ccc2o1 (centres unmarked) [CBK285673] | 100 |
| O=C(Cc1c[nH]c(=O)[nH]c1=O)Nc1ncc(Cc2ccc(F)cc2)s1 [CBK285674] | 103 |
| CN(C)C(=O)C1(Cc2ccccc2-c2ccccc2)CCN(C(=O)c2cccc(F)c2)CC1 [CBK285675] | 111 |
| Cc1cc(C(=O)N2CCC(Cc3ccccc3-c3ccccc3)(C(=O)N(C)C)CC2)cs1 [CBK285676] | 116 |
| Cc1ccc(C(=O)N2CCC(Cc3ccccc3-c3ccccc3)(C(=O)N(C)C)CC2)s1 [CBK285677] | 107 |
| CCCN1CCN(C(=O)c2cnc(C)cn2)C(Cc2cccc(-c3cccs3)c2)C1=O (centres unmarked) [CBK285678] | 87.2 |
| O=C(Cc1ccc2c(c1)CCCO2)Nc1c(OCCn2cccn2)ccc2ccccc12 [CBK285679] | 96.9 |
| COCCNC(=O)c1sc2ccccc2c1C1CCN(Cc2ccc3ncccc3c2)C1 (centres unmarked) [CBK285680] | 85.2 |
| COc1cc(CCc2cc(O)n3nc(C)c(-c4ccc(Cl)cc4)c3n2)on1 [CBK285681] | 91.3 |
| CN(C)C(=O)C1(Cc2ccccc2-c2cccs2)CCN(C(=O)Cc2ccccc2)CC1 [CBK285687] | 92.6 |
| O=C(NCCc1ccc(F)cc1)C1CN(C(=O)c2ccc3nsnc3c2)C1 [CBK285690] | 95.8 |
| COc1cc(CCc2cc(O)n3nc(-c4cccc(C)c4)c(C)c3n2)on1 [CBK285691] | 99.8 |

From paper PMC12040169 (PLOS Biology, 2025)
